{"source": "patent US8153648B2", "about": "“Solid and crystalline dutasteride and processes for preparation thereof” (Gador S.A., priority 2008, dated 2012)", "key": {"[1]": {"test": "stability on exposure to different humidity conditions", "type": "physicochemical"}, "[2]": {"test": "intrinsic dissolving speed (VDI) study", "type": "physicochemical", "details": "for change of crystalline or polymorphous structure during the dissolving assay: SDS 2% in hydrochloric acid 0.1N 225 ml, detected in the study chart", "method": "These study has been carried out using Lauril Sodium Sulphate SDS 2% in hydrochloric acid 0.1N 225 ml. as dissolvent. At the established experimental conditions, changes were seen depending on the crystalline or polymorphous structure present."}}, "data": [{"smiles": "C[C@]12C=CC(=O)NC1CCC1C2CC[C@]2(C)C(C(=O)Nc3cc(C(F)(F)F)ccc3C(F)(F)F)CCC12", "note": "(stereo partly drawn) [Crystalline Form II of dutasteride, 17β-N-[2,5-bis(trifluoromethyl)phenyl]carbamoyl-4-aza-5-α-androst-1-en-3-one]", "values": [{"measurement": "changes in the solid Form with XR study", "setting": "[1]; 66% and 75% HR, 60-day period", "result": "No changes were observed"}, {"measurement": "stability when exposed to humidity", "setting": "[1]; 66% and 75% HR, 60-day period", "result": "stable"}, {"measurement": "water content (KF), final sample", "setting": "[1]; after 60 days at 66% and 75% HR", "result": 2.1}, {"measurement": "water content (KF), initial sample", "setting": "[1]; before humidity exposure", "result": 1.9}, {"measurement": "change of crystalline or polymorphous structure during the dissolving assay", "setting": "[2]", "result": "did not show any changes"}]}, {"smiles": "C[C@]12C=CC(=O)NC1CCC1C2CC[C@]2(C)C(C(=O)Nc3cc(C(F)(F)F)ccc3C(F)(F)F)CCC12", "note": "(stereo partly drawn) [Form I, 17β-N-[2,5-bis(trifluoromethyl)phenyl]carbamoyl-4-aza-5-α-androst-1-en-3-one]", "values": [{"measurement": "change of crystalline or polymorphous structure during the dissolving assay", "setting": "[2]", "result": "transformation into Form III"}]}, {"smiles": "C[C@]12C=CC(=O)NC1CCC1C2CC[C@]2(C)C(C(=O)Nc3cc(C(F)(F)F)ccc3C(F)(F)F)CCC12", "note": "(stereo partly drawn) [amorphous Form, 17β-N-[2,5-bis(trifluoromethyl)phenyl]carbamoyl-4-aza-5-α-androst-1-en-3-one]", "values": [{"measurement": "change of crystalline or polymorphous structure during the dissolving assay", "setting": "[2]", "result": "did not show any changes"}]}, {"smiles": "C[C@]12C=CC(=O)NC1CCC1C2CC[C@]2(C)C(C(=O)Nc3cc(C(F)(F)F)ccc3C(F)(F)F)CCC12", "note": "(stereo partly drawn) [Crystalline Form III of dutasteride, 17β-N-[2,5-bis(trifluoromethyl)phenyl]carbamoyl-4-aza-5-α-androst-1-en-3-one]", "values": [{"measurement": "intrinsic dissolving speed value (VDI)", "setting": "[2]; Lauril Sodium Sulphate SDS 2% in hydrochloric acid 0.1N 225 ml as dissolvent", "result": "of the same magnitude of the crystalline forms described in the previous art"}]}]}
